The text below walks through data of ChEMBL document CHEMBL1201862, “PubChem BioAssay data set” (2004).

Some test systems named below: U-251; SW-620; LOX IMVI; SF-539; IGROV-1; 786-0; CCRF-CEM; SF-295; RXF 393; HOP-62; HL-60; UACC-257; OVCAR-4; K562; KM12; NCI-H23; M14; DMS-273; HCT-15.
Holding throughout (experiment): inhibition of tumour cell growth, NCI panel, 48 h

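Briefly, cells in 96-well plates were exposed to five compound concentrations for 48 h, and endpoints were estimated by linear interpolation. The concentration for 50% growth inhibition is given as GI50.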 Active and inactive are the calls of the source. Cut-off read from the data, not from the text of the source: active = GI50 up to about 1.1 µM and inactive = higher.

Regarding `O=C(Cn1ccnc1[N+](=O)[O-])NCc1ccc(F)cc1`, the GI50 in the experiment on U-251, with SW-620, with LOX IMVI, with SF-539, with IGROV-1 and in the experiment with 786-0 was > 100 µM (inactive) throughout. Besides, the GI50 in the experiment with CCRF-CEM, in the experiment on SF-295, in the experiment with RXF 393, with HOP-62, in the experiment on HL-60 and in the experiment with UACC-257 was > 100 µM (inactive) each time. Also, the GI50 in the experiment with OVCAR-4, with K562, in the experiment on KM12, in the experiment with NCI-H23, with M14 and with DMS-273 was > 100 µM (inactive) throughout. This compound returned a GI50 with HCT-15 of over 100 µM.

For the compound `C=CCCCCCCCCCP(=O)(c1ccccc1)c1ccc2c(c1)OCCOCCOCCOCCO2` (centres undefined), the GI50 was 15.9 µM (inactive) in the experiment with U-251; 16 µM (inactive) with SW-620; 15.3 µM (inactive) with LOX IMVI; 17.3 µM (inactive) in the experiment with SF-539; 16 µM (inactive) with IGROV-1; 16.3 µM (inactive) with 786-0. Moreover, the GI50 in the experiment with CCRF-CEM was 16.5 µM (inactive); with SF-295, 15.2 µM (inactive); in the experiment with RXF 393, 14.2 µM (inactive); with HOP-62, 16.6 µM (inactive); in the experiment on HL-60 it was 5.18 µM (inactive); in the experiment on UACC-257, 16.7 µM (inactive). For the same compound, the GI50 with OVCAR-4 was 11.5 µM (inactive); in the experiment on K562, 9.42 µM (inactive); with KM12, 12.8 µM (inactive); in the experiment on NCI-H23 it was 14.9 µM (inactive); in the experiment with M14, > 100 µM (inactive); in the experiment with DMS-273, 15.1 µM (inactive). In the experiment on HCT-15, this compound had a GI50 of 13.8 µM.

With `CCCCCCNC(=O)CCN(C(=O)O)S(=O)(=O)c1ccc(NC(=O)c2ccccc2)cc1`, the GI50 in the experiment on U-251 was 20 µM (inactive); in the experiment with SW-620, 14.2 µM (inactive); with LOX IMVI, 25.1 µM (inactive); in the experiment with SF-539, 17.9 µM (inactive); in the experiment on IGROV-1, > 100 µM (inactive); in the experiment with 786-0, > 96.4 µM (inactive). Further, the GI50 in the experiment on CCRF-CEM was 22.3 µM (inactive); with SF-295, > 100 µM (inactive); in the experiment on RXF 393, > 100 µM (inactive); in the experiment on HOP-62, > 100 µM (inactive); in the experiment with HL-60 it was 35.9 µM (inactive); in the experiment on UACC-257, > 48.9 µM (inactive). Besides, the GI50 in the experiment with OVCAR-4 is > 100 µM (inactive); in the experiment with K562, > 48.2 µM (inactive); with KM12 it was > 57.4 µM (inactive); in the experiment with NCI-H23, > 100 µM (inactive); with M14, > 100 µM (inactive); with DMS-273, > 41 µM (inactive). This compound showed a GI50 in the experiment with HCT-15 of 22 µM.

As to `CC1C(O)=C(O)c2ccccc2N1O` (centres undefined), the GI50 with U-251 was > 100 µM (inactive); with SW-620 it was 98.9 µM (inactive); in the experiment on LOX IMVI, 82.2 µM (inactive); in the experiment with SF-539, > 100 µM (inactive); in the experiment with IGROV-1 it was > 100 µM (inactive); in the experiment with 786-0, > 100 µM (inactive). Further, the GI50 with CCRF-CEM was 47.3 µM (inactive); with SF-295, > 100 µM (inactive); in the experiment with RXF 393, 60.4 µM (inactive); in the experiment with HOP-62 it was 73.3 µM (inactive); with HL-60 it was 44.2 µM (inactive); in the experiment on UACC-257, 83.2 µM (inactive). Further, the GI50 with OVCAR-4 is > 100 µM (inactive); in the experiment with K562, 38.7 µM (inactive); in the experiment with KM12, > 100 µM (inactive); in the experiment with NCI-H23 it was 54.7 µM (inactive); with M14, > 100 µM (inactive); in the experiment with DMS-273, > 100 µM (inactive). In the experiment with HCT-15, this compound showed a GI50 of 96.6 µM.

With `CC1=NN(C(=O)Nc2ccc(Cl)cc2)C(=O)C2CCC(=O)N12` (centres undefined), the GI50 with U-251 is > 100 µM (inactive); in the experiment with SW-620 it was > 100 µM (inactive); in the experiment with LOX IMVI, 4.13 µM (inactive); in the experiment with SF-539, > 100 µM (inactive); with IGROV-1, > 100 µM (inactive); in the experiment on 786-0, 88.7 µM (inactive). Also, the GI50 is > 100 µM (inactive) in the experiment with CCRF-CEM; 48.3 µM (inactive) in the experiment on SF-295; > 100 µM (inactive) with RXF 393; > 100 µM (inactive) in the experiment with HOP-62; 61.7 µM (inactive) in the experiment on HL-60; 49.3 µM (inactive) in the experiment with UACC-257. Moreover, the GI50 is 72.8 µM (inactive) in the experiment with OVCAR-4; 3.19 µM (inactive) with K562; 28.9 µM (inactive) in the experiment on KM12; 74.1 µM (inactive) in the experiment on NCI-H23; > 100 µM (inactive) in the experiment with M14; 47.3 µM (inactive) in the experiment with DMS-273. Moreover, the GI50 in the experiment on HCT-15 was 1.76 µM.

Turning to `CP1(=O)CCCCC1`, the GI50 in the experiment on U-251, with SW-620, in the experiment on LOX IMVI, with SF-539, with IGROV-1 and in the experiment with 786-0 was > 100 µM (inactive) in each case. The GI50 with CCRF-CEM, with SF-295, with RXF 393, in the experiment with HOP-62, in the experiment on HL-60 and in the experiment with UACC-257 was > 100 µM (inactive) in each case. In addition, the GI50 in the experiment with OVCAR-4, in the experiment with K562, with KM12, in the experiment on NCI-H23, with M14 and with DMS-273 was > 100 µM (inactive) each time. This compound came in with a GI50 in the experiment with HCT-15 of over 100 µM.

With `OCC(O)C(O)C(O)c1nn(-c2ccccc2)c2nc3cc(Cl)c(Cl)cc3nc12` (centres undefined), the GI50 with U-251 is 70.5 µM (inactive); in the experiment with SW-620, 88.9 µM (inactive); with LOX IMVI it was 36.5 µM (inactive); in the experiment on SF-539, 18.6 µM (inactive); in the experiment on IGROV-1, 39.4 µM (inactive); with 786-0 it was 32 µM (inactive). Further, the GI50 in the experiment with CCRF-CEM was 40.5 µM (inactive); with SF-295 it was 56.5 µM (inactive); in the experiment on RXF 393, 19.9 µM (inactive); in the experiment with HOP-62 it was 42.1 µM (inactive); in the experiment on HL-60, 27 µM (inactive); in the experiment on UACC-257 it was 63.1 µM (inactive). The GI50 in the experiment with OVCAR-4 was 35.6 µM (inactive); with K562, 18.6 µM (inactive); with KM12 it was > 10 µM (inactive); in the experiment on NCI-H23, 49.8 µM (inactive); in the experiment on M14, 17.7 µM (inactive); with DMS-273, 39.8 µM (inactive).

Take `C1CN2CCN3CCN4CCN1[PH]243`: the GI50 in the experiment on U-251, in the experiment with SW-620, in the experiment with LOX IMVI, with SF-539, in the experiment with IGROV-1 and in the experiment on 786-0 was > 100 µM (inactive) throughout. Also, the GI50 with CCRF-CEM, with SF-295, in the experiment with RXF 393, in the experiment on HOP-62, in the experiment with HL-60 and in the experiment with UACC-257 was > 100 µM (inactive) in each case. Further, the GI50 with OVCAR-4, in the experiment with K562, in the experiment with KM12, in the experiment on NCI-H23, with M14 and in the experiment with DMS-273 was > 100 µM (inactive) in each case. The compound further had a GI50 with HCT-15 of over 100 µM.

On to `CCOC(=O)COS(=O)(=O)C(F)(F)F`, for which the GI50 is > 100 µM (inactive) in the experiment on U-251; 18.8 µM (inactive) with LOX IMVI; > 100 µM (inactive) in the experiment on SF-539; > 100 µM (inactive) in the experiment with IGROV-1; 35.4 µM (inactive) in the experiment with 786-0; > 100 µM (inactive) with CCRF-CEM. Moreover, the GI50 with SF-295, with RXF 393, in the experiment on HOP-62, in the experiment with HL-60, in the experiment with UACC-257 and in the experiment on OVCAR-4 was > 100 µM (inactive) each time. In addition, the GI50 in the experiment on K562 is > 100 µM (inactive); in the experiment with KM12, > 100 µM (inactive); with NCI-H23, > 100 µM (inactive); with M14, > 100 µM (inactive); with DMS-273, 18.4 µM (inactive); in the experiment with HCT-15 it was 18.5 µM.

As for `Cn1c2c(c3ccccc31)C1CCCCC1C1C(=O)NC(=O)C21` (centres undefined), the GI50 was > 100 µM (inactive) with U-251; 52 µM (inactive) in the experiment with SW-620; 33.1 µM (inactive) in the experiment on LOX IMVI; 80.7 µM (inactive) with SF-539; > 100 µM (inactive) in the experiment with IGROV-1; 65 µM (inactive) in the experiment with 786-0. In addition, the GI50 in the experiment with CCRF-CEM is 36.6 µM (inactive); in the experiment with SF-295 it was 57.7 µM (inactive); in the experiment on RXF 393, 32.4 µM (inactive); in the experiment on HL-60, 26.6 µM (inactive); in the experiment with OVCAR-4, 56.5 µM (inactive); in the experiment on K562, 40.6 µM (inactive). For the same compound, the GI50 in the experiment with KM12 is 54.3 µM (inactive); in the experiment on NCI-H23, > 100 µM (inactive); with M14 it was 57.9 µM (inactive); with DMS-273 it was > 10 µM (inactive); with HCT-15 it was 68.9 µM.

With `C=C(CO)CC(/C=C(\C)CC/C=C(\C)CCl)OC(C)=O` (centres undefined), the GI50 in the experiment on U-251, in the experiment on SW-620, with LOX IMVI, with SF-539, in the experiment on IGROV-1 and with 786-0 was > 100 µM (inactive) throughout. Moreover, the GI50 in the experiment with CCRF-CEM, with SF-295, with RXF 393, with HOP-62, in the experiment with HL-60 and in the experiment on OVCAR-4 was > 100 µM (inactive) each time. Further, the GI50 was > 100 µM (inactive) in the experiment on K562; > 100 µM (inactive) in the experiment on KM12; > 100 µM (inactive) with NCI-H23; > 100 µM (inactive) in the experiment with M14; > 100 µM (inactive) with DMS-273; over 100 µM in the experiment on HCT-15.
